For orientation: IC50 means the concentration needed to halve the response being measured. Low readings indicate higher potency, high ones lower potency.

We go through two compounds from article PMC10544195, “Identification of novel SCD1 inhibitor alleviates nonalcoholic fatty liver disease: critical role of liver-adipose axis” (Cell Communication and Signaling : CCS, 2023).

The assay has as its system T1, SCD1.
T1 construct: IC50 assay and protein source not described; activity elsewhere measured in mouse OP9 and AML12 cells (native enzyme)
Nature of the assay: SCD1 inhibition, assay not described. It counts as cell-based. The following applies: assay system not stated.

In the case of `CNC(=O)c1cccc(NC(=O)N2CCC(Oc3ccccc3Cl)CC2)c1` [A939572], the half-inhibitory concentration (IC50) is 2800 nM. Then `c1cc(-c2nc3ccc(OCCCN4CCCC4)cc3o2)ccc1OCCCN1CCCC1` [E6446], with 980 nM.
